# In PubChem BioAssay (NCI):
#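 Five compound concentrations were applied to cells in 96-well plates for 48 hours; endpoints were derived by simple linear interpolation of the resulting dose-response curve. At the GI50, growth is halved. At the TGI there is no net growth.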
# Experiments:
# Experiment in all cases: inhibition of tumour cell growth, NCI panel, 48 h
# T-47D breast = tested on: T-47D breast
# TK-10 renal = tested on: TK-10 renal
# RXF 393 renal = tested on: RXF 393 renal
# SF-295 CNS = tested on: SF-295 CNS
# RPMI-8226 leukemia = tested on: RPMI-8226 leukemia
# UACC-257 melanoma = tested on: UACC-257 melanoma
# HCT-15 colon = tested on: HCT-15 colon
# KM12 colon = tested on: KM12 colon
# NCI-H226 lung = tested on: NCI-H226 lung
# BT-549 breast = tested on: BT-549 breast
SMILES,TGI (T-47D breast) [µM],TGI (TK-10 renal) [µM],TGI (RXF 393 renal) [µM],TGI (SF-295 CNS) [µM],TGI (RPMI-8226 leukemia) [µM],TGI (UACC-257 melanoma) [µM],TGI (HCT-15 colon) [µM],TGI (KM12 colon) [µM],TGI (NCI-H226 lung) [µM],TGI (BT-549 breast) [µM],GI50 (T-47D breast) [µM],GI50 (TK-10 renal) [µM],GI50 (RXF 393 renal) [µM],GI50 (SF-295 CNS) [µM],GI50 (RPMI-8226 leukemia) [µM],GI50 (UACC-257 melanoma) [µM],GI50 (HCT-15 colon) [µM],GI50 (KM12 colon) [µM],GI50 (NCI-H226 lung) [µM],GI50 (BT-549 breast) [µM]
COc1cc(CC(C)N)ccc1O (configuration not stated),> 100,> 100,> 100,> 100,> 100,> 100,> 100,> 100,> 100,–,–,–,–,–,–,–,–,–,–,–
Nc1nc(Nc2ccc(Cl)cc2)sc1C(=O)c1cccs1,> 100,36.3,42,–,> 100,> 100,> 100,> 100,75.3,> 100,–,–,–,–,–,–,–,–,–,–
O=C(O)CC(NC(=O)/C(=C/c1ccccc1O)NC(=O)c1ccccc1)C(=O)O (configuration not stated),> 100,> 100,–,> 100,> 100,> 100,> 100,> 100,> 100,> 100,–,–,–,–,–,–,–,–,–,–
Cc1ccc(-c2c(C#N)c(-c3ccc([N+](=O)[O-])cc3)c(C#N)c(=O)n2NS(=O)(=O)c2ccccc2)cc1,–,> 100,> 100,> 100,–,> 100,> 100,> 100,> 100,94.9,–,–,–,–,–,–,–,–,–,–
O=C1c2cccc(NCCNCCO)c2C(=O)c2cccc(NCCNCCO)c21,4.26,23.2,3.89,5.77,> 32.3,9.4,19,4.48,3.51,8.85,–,–,–,–,–,–,–,–,–,–
NS(=O)(=O)c1ccc(NC(NC(=O)C(C(F)(F)F)C(F)(F)F)(C(F)(F)F)C(F)(F)F)cc1,> 100,> 100,> 100,> 100,> 100,> 100,> 100,> 100,> 100,> 100,–,–,–,–,–,–,–,–,–,–
O=C(Nc1ccc(-n2cc(-c3ccncc3)c(-c3ccc(O)c(Cl)c3)n2)cc1)Nc1cccc(Cl)c1Cl,> 32.5,22.1,5.25,> 32.5,6.08,> 32.5,> 32.5,> 32.5,> 32.5,–,8.62,6.52,0.973,6.13,0.912,18.6,5.33,5.95,> 32.5,–
O=C1CS(=O)C23c4cc5ccccc5n4CCC2CCCN13 (configuration not stated),> 100,> 100,> 100,> 100,> 100,> 100,> 100,> 100,> 100,> 100,–,–,–,–,–,–,–,–,–,–
COC(=O)c1cc2c(cc1CC(Cc1ccc3c(c1)CCC3)C(=O)OC)CCC2 (configuration not stated),> 100,> 100,65.3,> 100,66.8,81.3,> 100,> 100,> 100,> 100,–,–,–,–,–,–,–,–,–,–
O=c1n(Cc2ccccc2)c(=O)n2c(=O)n(Cc3ccccc3)c(=O)n12,> 100,> 100,–,> 100,> 100,> 100,> 100,> 100,> 100,> 100,–,–,–,–,–,–,–,–,–,–
C[C@]12CC[C@H](O)C=C1CC[C@@H]1[C@@H]2CC[C@]2(C)C(c3ccc(=O)oc3)CC[C@]12O (some centres not stated),–,–,< 0.0125,0.0289,0.0733,0.0777,0.0803,0.129,0.154,–,–,–,–,–,–,–,–,–,–,–
c1csc(-c2c3ccc(=[N+]4CCCCC4)cc-3oc3cc(N4CCCCC4)ccc23)c1,–,0.34,0.273,–,–,0.321,–,–,–,0.32,–,0.15,0.133,–,–,0.0982,–,–,–,0.135
CCN1C(=O)N(CC)C2Nn3c(s/c(=C4\C(=O)N(C)c5ccccc54)c3=O)=NC21 (configuration not stated),> 100,–,–,> 100,> 100,> 100,> 100,> 100,> 100,–,3.14,–,–,2.83,3.97,7.71,1.27,2.91,> 100,–
CC/C(Cl)=N\OC(=O)Nc1ccc(F)c([N+](=O)[O-])c1,–,26.1,30.4,41.6,> 25.3,35.1,19.8,34.2,> 100,31.5,–,–,–,–,–,–,–,–,–,–
O=C(c1ccccc1)N1C(=S)N=C(Nc2ccccc2)C1=Nc1ccccc1,> 100,> 100,> 100,> 100,> 100,> 100,> 100,> 100,> 100,–,–,–,–,–,–,–,–,–,–,–
CN1COCc2cc3cc4c(cc3nc21)OCCO4,–,> 100,> 100,> 100,62.5,> 100,> 100,> 100,> 100,> 100,–,–,–,–,–,–,–,–,–,–
CC1=CC(=O)CC2(C)CCC(C(C)CC(=O)CC(C)C)CC12 (configuration not stated),–,> 100,> 100,> 100,60.8,64.1,> 100,36.4,63.2,–,–,–,–,–,–,–,–,–,–,–
CC(C)(C)OC(=O)C1C(=O)NC(=O)CC1C(COCc1ccccc1)OCc1ccccc1 (configuration not stated),38.7,> 100,–,43.3,62.6,41.4,54.5,36.7,39.4,55.6,–,–,–,–,–,–,–,–,–,–
C[C@]1(S(=O)(=O)c2ccccc2)C[C@H]2N(Cc3ccccc3)[C@@H]1CCC21OCCO1,> 100,–,> 100,> 100,–,69.3,> 100,> 100,–,> 100,–,–,–,–,–,–,–,–,–,–
O=[N+]([O-])c1ccc(C2=Nc3ccccc3SC(c3ccccc3)C2)cc1 (configuration not stated),–,> 100,40,46.3,48.4,51.6,30.9,32.2,54,–,–,–,–,–,–,–,–,–,–,–
O=C1CCCc2cc3c(cc21)CC1(C3)Cc2ccc3c(c2C1)C(=O)CCC3 (configuration not stated),> 100,> 100,> 100,> 100,50.8,26.5,> 100,37.9,90.1,–,–,–,–,–,–,–,–,–,–,–
COc1cc2c(c(O)c1O)-c1ccc(OC)c(=O)cc1C(NC(C)=O)CC2 (configuration not stated),–,> 100,43.8,41.4,> 43.7,> 100,> 100,25.7,92.7,–,–,–,–,–,–,–,–,–,–,–
